Reference: patent publication US20250250582A1, “Plant Cells and Plants Modified to Increase Herbicide Resistance and Stress Tolerance and Methods of Using the Same” (The Board of Trustees of the University of Arkansas, priority 2018, published 2025)
Where “and” joins values, the source holds several entries; their conditions need not be identical. Equal entries are not always repeated.

Columns and labels:
[1] = test system: susceptible E. colona (ECO-S); test: RNA-sequencing differential gene expression, herbicide-treated vs nontreated ECO-S; details: ECO-S-T vs ECO-S-N, 24 h
Source text: (§1) Pure-line generated seed of each accession were germinated in pots containing potting soil within a temperature/light controlled growth chamber set to a 14-hr day length, 33 C day temperature, and 24 C night time to simulate environmental conditions early in the rice growing season. A single plant was maintained in each of the pots and used for the treatments; two pots were used as individual biological replicates. […] Pots for each of the respective treatments were labeled as either ECO-R/S-T for the treated samples and ECO-R/S-N for the non-treated counterpart. To minimize the effect that the sprayer may play in the application, both plants of the ECO-R and ECO-S were treated at the same time. After approximately 30 minutes, allowing for the plants to dry, the treated and non-treated plants of both accessions were moved back into the growth chamber. Precisely 24-hours after application, the aboveground portion of each of the plants were removed and immediately frozen in liquid nitrogen to cease all biological function. Samples were then transferred to RNAlater™-ICE (Invitrogen, Carlsbad CA, USA) for shipment to the Clemson University Genomics Institute (CUGI), in Clemson, South Carolina.
(§2) RNA was extracted from the young leaf tissues of both replications for the ECO-R and ECO-S, T and N samples, at Clemson University. Total RNA was extracted with a kit according to the manufactures instructions. The extracted RNA was treated with DNase (Invitrogen, Calsbad, CA, USA) to remove any DNA contamination prior to further processing. The samples were prepared for sequencing by CUGI. For library preparation, the TruSeq Stranded Total RNA kit (Illumina Inc., San Diego, CA, USA) was used according to the instructions provided by the manufacturer to produce a paired-end library for sequencing. Ribosomal RNA was removed using target-specific oligonucleotides paired with rRNA removal beads, removing all cytoplasmic and mitochondrial rRNA that may result in poor quality results. RNA was fragmented and reverse transcribed to cDNA using random primers, followed by a second strand cDNA synthesis. Each fragment is then ligated with an additional ‘A’ and an adapter for sequencing. The PCR enriched product is then used to create the final cDNA library. All samples were sequenced on an Illumina Hiseq 2500 platform housed in the Holdings Cancer Center at the Medical University of South Carolina, Charleston, SC, USA. Samples, regardless of treatments or replication were ran across three lanes to reduce sequencing errors from the equipment. The resulting data were processed by CUGI.
(§3) A de novo transcriptome was assembled from the treatments described for this experiment as well as several treatments, which included herbicides profiled in ECO-R. The treatments were applied to both ECO-R and ECO-S samples with two replications as described previously. In total, 20 individual plants, from both the ECO-R and ECO-S accessions, as well as T and NT samples, were used for the assembly. The transcriptome was assembled using the Trinity RNA-Seq pipeline (Broad Institute, Cambridge, MA, USA). Raw data were assessed for quality using FastQC (Babraham Institute, Cambridge, UK) and then processed to remove adapter sequences and low quality bases using a sliding window method. The processed data were then rerun using FastQC to ensure high quality reads. Using the TrinityRNASeq 2.2.0 software, the samples were normalized, by replication, using a coverage size of 100 and kmer of 32. The normalized reads were then assembled as transcripts and genes using Trinity with the stranded library set as the default.

[2] = test system: ECO-R compared to ECO-S after herbicide treatment; test: RNA-sequencing differential gene expression, ECO-R-T compared to ECO-S-T
Source text: as §1, §2, §3

[3] = test system: multiple-resistant E. colona (ECO-R); test: Herbicide resistance profile of ECO-R; type: in vivo, Echinochloa colona; details: data not shown
Source text: Beginning in 2010, through the 2016 cropping cycle, Echinochloa spp. from throughout the rice producing counties of Arkansas, USA, located along the Mississippi River were sampled for a survey of the current status of herbicide resistance. Seeds were bulk sampled from plants that had matured in rice and soybean production fields, which had survived at least one herbicide application, were collected and sent to the University of Arkansas Altheimer Laboratory in Fayetteville for characterization and evaluation of herbicide resistance to common rice herbicides. […] From this screening program, two populations of E. colona were selected for use in this experiment. […] To establish inbred and homozygous accessions for the experiment, a single plant, verified as resistant/susceptible of ECO-R and ECO-S were grown in isolation to produce seed for further experiments.
Accession source and population profiling. From 2010 to 2016, the University of Arkansas weed physiology group has been collecting putative herbicide-resistant Echinochloa populations from rice production fields throughout the state of Arkansas. […] Collections took place in the late summer to early fall prior to rice harvest; these accessions were bulk sampled by in-field location and farm, with field histories collected when possible. All of the samples were submitted to the University of Arkansas Altheimer Laboratory for assessment of their resistance profile and characterized according to their species. […] Populations with unique profiles and of interest for further research were then grown in isolation to produce pureline seed. […] Another accession, E. colona susceptible (ECO-S), was also selected and grown in isolation. This accession was selected because of its similar cropping history and geographic location, as well as its high level of susceptibility to the herbicides of interest.

`CCC(=O)Nc1ccc(Cl)c(Cl)c1` [propanil] was tested, and the “ABC transporter G family member 5 Fold Change” value [1] was 2.8 fold, the “ABC transporter G family member 42 Fold Change” value [1] was 1.5 fold and the “ACC synthase fold change” value [1] was −2.7 fold. For the same compound, the “CYP71A1 Fold Change” value [1] was 2.9 fold, the “CYP71A21 Fold Change” value [1] was 5.1 fold and the “CYP71D7 Fold Change” value [1] was 5.9 fold. For the same compound, the “CYP94C1 Fold Change” value [1] was 3.7 fold and 5.4 fold and 5.5 fold, the “CYP716B1 Fold Change” value [1] was 3.0 fold and the “GSTU1 Fold Change” value [1] was 2.5 fold and 2.7 fold. The “GSTU6 Fold Change” value [1] was 2.3 fold and 4.1 fold, the “Heparan-alpha-glucosaminide N-acetyltransferase Fold Change” value [1] was 2.5 fold and the “MSR-1 Fold Change” value [1] was 2.1 fold. For the same compound, the MYB44 fold change [1] was greater than 3 fold, the MYC3 fold change [1] was 3.4 fold and the “Probable glutathione S-transferase Fold Change” value [1] was 1.8 fold. The RGA2 fold change [1] was greater than 7.5 fold, the RGA3 fold change [1] was 1.7 fold and the “UGT73B4 Fold Change” value [1] was 3.8 fold and 5.7 fold. The “UGT73C1 Fold Change” value [1] was 3.1 fold, the “UGT73C2 Fold Change” value [1] was 3.3 fold and the “UGT74D1 Fold Change” value [1] was 2.2 fold. The “UGT75C1 Fold Change” value [1] was 2.9 fold, the “Uncharacterized acetyltransferase At3g50280 Fold Change” value [1] was 2.5 fold and 3.5 fold and the “multiple ACC oxidase genes fold change” value [1] was −1.8 to −2.2 fold. For the same compound, the “phosphoenolypyruvate carboxylase fold change” value [1] was −2.1 to −3.4 fold, the “pyruvate dehydrogenase fold change” value [1] was −5.6 to −6.2 fold and the “sugar transporter ERD6-like 6 fold change” value [1] was 2.3 fold. The “DNA and RNA polymerase-related transcripts fold change” value ([1]; repressed by as much as) was no more than −8.7 fold, the “ACCase and ACCase 2 fold change” value ([1]; repressed up to) was “up to −6.9 fold” and the “ABA 8′-hydroxylase 1 transcripts fold change” value ([2]; ECO-R-T vs ECO-S-T, 24 h) was less than −6.5 fold. For the same compound, the “ABA receptor PYL5 fold change” value ([2]; ECO-R-T vs ECO-S-T, 24 h) was −4.8 fold, the “ABA receptor PYL8 fold change” value ([2]; ECO-R-T vs ECO-S-T, 24 h) was −3.7 fold and the “ACC synthase fold change” value ([2]; ECO-R-T vs ECO-S-T, 24 h) was 8.6 fold. The “Beta-glucosidase 22 fold change” value ([2]; ECO-R-T vs ECO-S-T, 24 h) was 5.9 fold, the “CYP71A1 Fold Change” value ([2]; ECO-R-T vs ECO-S-T, 24 h) was 3.6 fold and the “CYP72A15 Fold Change” value ([2]; ECO-R-T vs ECO-S-T, 24 h) was 6.6 fold and 11.3 fold. For the same compound, the “DNA-directed RNA polymerase 1 subunit RPA112 III fold change” value ([2]; ECO-R-T vs ECO-S-T, 24 h) was 10.3 fold, the ERF4 fold change ([2]; ECO-R-T vs ECO-S-T, 24 h) was 4.3 fold and the ERF7 fold change ([2]; ECO-R-T vs ECO-S-T, 24 h) was 8 fold. The ERF11 fold change ([2]; ECO-R-T vs ECO-S-T, 24 h) was 3.4 fold, the GST1 fold change ([2]; ECO-R-T vs ECO-S-T, 24 h) was 3.9 fold and the GST4 fold change ([2]; ECO-R-T vs ECO-S-T, 24 h) was greater than 5.3 fold. For the same compound, the GSTU17 fold change ([2]; ECO-R-T vs ECO-S-T, 24 h) was 10.9 fold, the “UGT73D1 fold change” value ([2]; ECO-R-T vs ECO-S-T, 24 h) was 7.3 fold and the “UGT88A1 Fold Change” value ([2]; ECO-R-T vs ECO-S-T, 24 h) was 3.2 fold. For the same compound, the UGT88F3 fold change ([2]; ECO-R-T vs ECO-S-T, 24 h) was 5.9 fold, the ferredoxin-6 fold change ([2]; ECO-R-T vs ECO-S-T, 24 h) was −6.5 fold and the “nitrate reductase fold change” value ([2]; ECO-R-T vs ECO-S-T, 24 h) was less than −6 fold. For the same compound, the “nitrate transporters fold change” value ([2]; ECO-R-T vs ECO-S-T, 24 h) was less than −4 fold, the “polymerase III subunit 2 fold change” value ([2]; ECO-R-T vs ECO-S-T, 24 h) was 10.8 fold and the “trehalose biosynthesis enzymes fold change” value ([2]; ECO-R-T vs ECO-S-T, 24 h) was less than −3 fold. The “Phosphoenolpyruvate carboxylase (PEPc) kinase 1 fold change” value ([2]; in vivo) was greater than 5 fold and the level of resistance [3] was greater than 8 × field dose.
